Some test systems named below: A498 renal; BT-549 breast; DU-145 prostate; HOP-92 NSCLC; KM12 colon; M14 melanoma; MDA-MB-435; NCI-H460 lung; NCI-H522 lung; OVCAR-4 ovarian; SF-539 CNS; SK-OV-3 ovarian; T-47D breast.
Assay in all cases: NCI anticancer screen, dose series, 48 h

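Step 1: Grow cells in 96-well plates. Step 2: Expose to compound for 48 hours at 5 concentrations. Step 3: Interpolate endpoints linearly; if unreached, use highest concentration. TGI denotes the concentration required for complete inhibition of growth.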

Our source for the TGI values is PubChem BioAssay (NCI).

Take `O=C(Nc1ccccc1)N1CCNC1=S`: the TGI in the assay with A498 renal, with BT-549 breast, in the assay on DU-145 prostate, with HOP-92 NSCLC, in the assay on KM12 colon and with M14 melanoma was greater than 100 µM in each case. The TGI with MDA-MB-435, in the assay with NCI-H460 lung, with NCI-H522 lung, with OVCAR-4 ovarian, in the assay on SF-539 CNS and with SK-OV-3 ovarian was greater than 100 µM in each case. In the assay with T-47D breast, this compound returned a TGI greater than 100 µM.
For `Cc1sc2ncnc(NCCc3ccccc3)c2c1C`, the TGI in the assay with A498 renal was 29 µM; in the assay with BT-549 breast it was 62.9 µM; in the assay with DU-145 prostate it was 70.9 µM; in the assay with HOP-92 NSCLC, 15.5 µM; in the assay on KM12 colon it was 29.6 µM; with M14 melanoma, 41.3 µM. Besides, the TGI in the assay on MDA-MB-435 was 34.6 µM; with NCI-H460 lung, 23.9 µM; in the assay with NCI-H522 lung, 25.1 µM; with OVCAR-4 ovarian it was 59 µM; in the assay with SF-539 CNS it was 31.2 µM; in the assay on SK-OV-3 ovarian, 73.4 µM. Also, the TGI in the assay with T-47D breast stood at 56.6 µM.
For `O=C(CNC(=O)OCc1ccccc1)NCCCCC(NC(=O)OCc1ccccc1)C(=O)O` (stereo not drawn), the TGI in the assay with A498 renal, in the assay with BT-549 breast, in the assay on DU-145 prostate, in the assay with HOP-92 NSCLC, in the assay on KM12 colon and with M14 melanoma was greater than 100 µM each time. The TGI in the assay on MDA-MB-435, in the assay with NCI-H460 lung, in the assay on NCI-H522 lung, in the assay on OVCAR-4 ovarian, in the assay with SF-539 CNS and in the assay on SK-OV-3 ovarian was greater than 100 µM in each case. The same compound registered a TGI in the assay with T-47D breast greater than 100 µM.
As for `Cn1c(=O)nc2n(CCO)c(-c3ccccc3)c(-c3ccccc3)nc-2c1=O`, the TGI in the assay on A498 renal, in the assay with BT-549 breast, in the assay on DU-145 prostate, in the assay on HOP-92 NSCLC, with KM12 colon and in the assay with M14 melanoma was greater than 100 µM each time. Moreover, the TGI with MDA-MB-435, in the assay on NCI-H460 lung, in the assay with NCI-H522 lung, in the assay with OVCAR-4 ovarian, in the assay with SF-539 CNS and in the assay with SK-OV-3 ovarian was greater than 100 µM throughout. The TGI with T-47D breast was greater than 100 µM.
In the case of `CCN(CC)c1ccc(/C=C/C2=NN(c3cccc(S(=O)(=O)O)c3)C3(C2)C(Cl)C(=O)N3c2nc3ccccc3s2)cc1` (stereo not drawn), the TGI stood at 24.8 µM in the assay on A498 renal; 22.7 µM in the assay with BT-549 breast; 25.2 µM in the assay on DU-145 prostate; 15.3 µM with HOP-92 NSCLC; 20.9 µM in the assay with KM12 colon; 28.1 µM with M14 melanoma. In addition, the TGI in the assay on MDA-MB-435 is 17 µM; in the assay with NCI-H460 lung, 25.8 µM; in the assay with NCI-H522 lung, 3.57 µM; in the assay with OVCAR-4 ovarian it was 9.83 µM; in the assay with SF-539 CNS it was 10.6 µM; in the assay on SK-OV-3 ovarian, 39.3 µM. The compound also displayed a TGI with T-47D breast of 12.9 µM.
Regarding `CC[C@@]1(O)C(=O)OCc2c1c(Cl)c1n(c2=O)Cc2cc3ccccc3nc2-1`, the TGI was 8.45 µM in the assay on A498 renal; greater than 47.7 µM with BT-549 breast; 8.63 µM in the assay with DU-145 prostate; greater than 70.3 µM with HOP-92 NSCLC; greater than 95.5 µM in the assay with KM12 colon; 9.04 µM in the assay with M14 melanoma. The TGI was greater than 100 µM with MDA-MB-435; 4.25 µM in the assay on NCI-H460 lung; 20.8 µM in the assay on NCI-H522 lung; 63.1 µM in the assay with OVCAR-4 ovarian; 6.09 µM in the assay with SF-539 CNS; 45.5 µM in the assay with SK-OV-3 ovarian. Further, in the assay on T-47D breast, the TGI is greater than 23 µM.
